The values that follow come from patent US20080051438A1, “Preventive/Therapeutic Compositions Useful for Treating Cardiovascular Diseases” (priority 2006, published 2008).

What all share (type): in vivo, human
In experiment [1] the test system is hypertensive patients. As to the kind of experiment: Special investigation of combined use of cilnidipine and ARB: degree of the blood pressure controls judged by the doctor (efficacy ratio). Set-up: concentration or dose not given beside the values. The note with it: named ARB alone, then cilnidipine additionally administered, kind of ARB unchanged; blood pressure control in the 12th week. Here is the method: (§1) A special investigation was conducted in various medical centers, compiled, and analyzed to evaluate the safety and availability of the combined use of cilnidipine and at least one angiotensin II receptor blocker.
(§2) The subjects of the investigation were hypertensive patients which were adapted to cilnidipine. Combined administration of cilnidipine and ARB was started for the treatment of hypertension in these patients.
(§3) A prospective continuous investigation method was conducted. Such a method is continuously conducted with the registered cases with the combined administration of cilnidipine (Atelec®) and ARB, until the number of cases reaches the contracted cases for each center.
(§4) Regarding the administration method of cilnidipine, 5 to 10 mg of cilnidipine was orally administered after breakfast once a day. Meanwhile, the amount may increase or decrease depending on patient's age, symptoms, or the like. When the effect is insufficient, the amount can be increased to 20 mg once a day. The dosing period of cilnidipine was set to 12 weeks in principle.
(§5) The following items were tracked during the investigation: patient's background (sex), existence or nonexistence of previous therapeutic agents and the content thereof, targeted blood pressure (systolic BP/diastolic BP), the conditions of administration of cilnidipine and ARB, antihypertensives used in combination (those other than cilnidipine or ARB), clinical course (systolic BP/diastolic BP/heart rate), and occurrence of side-effects. As for the availability of the combined administration, in the 12th week after starting the combined administration, the doctor in attendance judged the degree of the blood pressure controls on a three-point scale of “well-controlled”, “nearly well-controlled” and “poorly-controlled”, referring to the changes in the systolic and diastolic BP. As for the safety and availability analysis for each patient background, Fisher's exact probability test or the X^2 test was used. As for the blood pressure and heart rate, the average value and the standard deviation were calculated for the subjects before the combined administration (within 4 weeks before starting the combined administration), and data after starting the combined administration were determined on each observation day, and analysis was conducted by using a paired t-test. The test was conducted as the two-sided test and less than 5% of the risk rate was regarded as significant. Furthermore, side-effects were compiled based on the naming of preferred terms (PT) of MedDRA/J ver 8.0.
As the index of availability, in the 12th week after starting the combined administration, the doctor in attendance judged the degree of the blood pressure controls on a three-point scale of “well-controlled”, “nearly well-controlled” and “poorly-controlled”.
(1) Among the 2919 cases in the availability analysis, 42 cases in which the degree of the blood pressure controls was not described, and 168 cases which could not be judged, were excluded. In the other 2709 cases, the ratio of number of cases judged as “nearly well-controlled” or higher was calculated as the efficacy ratio. Accordingly, the efficacy ratio of the subject cases in the availability analysis was 84.8% (2298 cases/2709 cases).

Experiment [2] has as its system hypertensive patients. As to the kind of experiment: Special investigation of combined use of cilnidipine and ARB: changes in systolic and diastolic blood pressure. Here is the method: as §1, §2, §3, §4, §5
Table 7 and FIG. 2 show the number of cases for which the blood pressure was measured, and the changes in the measured values of systolic BP, diastolic BP, and heart rate were measured at the following time points: before starting the combined administration, 4 weeks, 8 weeks, and 12 weeks after starting the combined administration, and the last measurement, […] administration, n=2919). […] Then, it continued to slowly decrease, and the a stable change was seen up to 12 weeks after the start.

In experiment [3] the test system is hypertensive patients. As to the kind of experiment: Special investigation of combined use of cilnidipine and ARB: changes in heart rate. The note with it: for heart rate (beat/min.) last meas., ave.: named ARB + 10 mg cilnidipine after switch from 5 mg amlodipine, 12 weeks or later to the last measurement; for heart rate (beat/min.) last meas.: named ARB + cilnidipine 10 mg, last measurement; for heart rate (beat/min.) last meas. / heart rate (beat/min.) start. admin., ave. / heart rate (beat/min.) start admin.: doses unchanged; for heart rate (beat/min.) 12th wk aft admin.: named ARB + cilnidipine only, 12 weeks after starting the combined administration; for heart rate (beat/min.) start. admin., ave.: on named ARB + 5 mg amlodipine, at switch of amlodipine to 10 mg cilnidipine; for heart rate (beat/min.) start admin.: on named ARB alone (candesartan 8, valsartan 80, losartan 50, telmisartan 40 mg) at start of adding cilnidipine 10 mg; for heart rate (beat/min.) upon start. admin.: on named ARB alone, before cilnidipine was additionally administered. Here is the method:
as §1, §2, §3, §4, §5
Table 7 and FIG. 2 show the number of cases for which the blood pressure was measured, and the changes in the measured values of systolic BP, diastolic BP, and heart rate were measured at the following time points: before starting the combined administration, 4 weeks, 8 weeks, and 12 weeks after starting the combined administration, and the last measurement, which was 222.43 days in average from the start of the combined administration, n=2919). […] Then, it continued to slowly decrease, and the a stable change was seen up to 12 weeks after the start.

[4] abbreviates: named ARB + 10 mg cilnidipine after switch from 5 mg amlodipine, 12 weeks or later to the last measurement.
The mark [5] stands for this setting: named ARB + cilnidipine 10 mg, doses unchanged, last measurement, 211.43 ± 133.43 day after starting the combined use.
[6] abbreviates: named ARB + cilnidipine only, 12 weeks after starting the combined administration.
The mark [7] stands for this setting: on named ARB + 5 mg amlodipine, at switch of amlodipine to 10 mg cilnidipine, doses unchanged.
Where [8] appears, read: on named ARB alone (candesartan 8, valsartan 80, losartan 50, telmisartan 40 mg) at start of adding cilnidipine 10 mg, doses unchanged.
Where [9] appears, read: on named ARB alone, before cilnidipine was additionally administered.

For `CCOc1nc2cccc(C(=O)O)c2n1Cc1ccc(-c2ccccc2-c2nnn[nH]2)cc1` [candesartan], the “efficacy ratio (%)” value in experiment [1] is listed as 85.5%. Also, in experiment [2] (setting [4]), the “diastolic BP” value was determined as 78.58 mmHg and the “systolic BP” value was 140.96 mmHg. For the same molecule, in experiment [2] (setting [5]), the “diastolic BP” value was found to be 79.81 ± 12.72 mmHg and the “systolic BP” value was 141.02 ± 17.36 mmHg. Also, in experiment [2] (setting [6]), the “diastolic BP” value was determined as 79.81 ± 12.72 mmHg and the “systolic BP” value came out at 141.29 ± 17.02 mmHg. In experiment [2] (setting [7]), the “diastolic BP” value worked out at 82.90 mmHg and the “systolic BP” value was 152.10 mmHg. Further, in experiment [2] (setting [8]), the “diastolic BP” value was found to be 89.59 ± 14.80 mmHg and the “systolic BP” value turned out to be 164.98 ± 16.35 mmHg. In addition, in experiment [2] (setting [9]), the “diastolic BP” value turned out to be 89.59 ± 14.80 mmHg and the “systolic BP” value amounted to 163.78 ± 17.52 mmHg. Besides, in experiment [3], the “heart rate (beat/min.) last meas., ave.” value is 72.58 beat/min; the “heart rate (beat/min.) last meas.” value worked out at 72.47 ± 11.14 beat/min; the “heart rate (beat/min.) 12th wk aft admin.” value is 72.66 ± 11.86 beat/min; the “heart rate (beat/min.) start. admin., ave.” value is given as 75.54 beat/min. Moreover, in experiment [3], the “heart rate (beat/min.) start admin.” value turned out to be 74.19 ± 10.96 beat/min and the “heart rate (beat/min.) upon start. admin.” value amounted to 75.14 ± 11.48 beat/min.
For `CCCCc1nc(Cl)c(CO)n1Cc1ccc(-c2ccccc2-c2nn[nH]n2)cc1` [losartan], the “efficacy ratio (%)” value in experiment [1] is reported as 89.8%. In experiment [2] (setting [4]), the “diastolic BP” value worked out at 79.78 mmHg and the “systolic BP” value was 138.22 mmHg. In addition, in experiment [2] (setting [5]), the “diastolic BP” value turned out to be 79.32 ± 9.82 mmHg and the “systolic BP” value was 137.74 ± 15.19 mmHg. For the same molecule, in experiment [2] (setting [6]), the “diastolic BP” value amounted to 79.45 ± 9.20 mmHg and the “systolic BP” value amounted to 139.52 ± 14.43 mmHg. Besides, in experiment [2] (setting [7]), the “diastolic BP” value was 82.00 mmHg and the “systolic BP” value is reported as 150.35 mmHg. For the same molecule, in experiment [2] (setting [8]), the “diastolic BP” value amounted to 90.40 ± 10.35 mmHg and the “systolic BP” value worked out at 161.84 ± 16.13 mmHg. Moreover, in experiment [2] (setting [9]), the “diastolic BP” value amounted to 88.67 ± 9.91 mmHg and the “systolic BP” value is 160.78 ± 14.13 mmHg. Besides, in experiment [3], the “heart rate (beat/min.) last meas., ave.” value was 72.44 beat/min; the “heart rate (beat/min.) last meas.” value was determined as 73.66 ± 9.49 beat/min; the “heart rate (beat/min.) 12th wk aft admin.” value is given as 73.95 ± 7.68 beat/min; the “heart rate (beat/min.) start. admin., ave.” value worked out at 72.00 beat/min. Further, in experiment [3], the “heart rate (beat/min.) start admin.” value worked out at 74.13 ± 8.98 beat/min and the “heart rate (beat/min.) upon start. admin.” value is 73.81 ± 8.29 beat/min.
Regarding `CCCc1nc(C(C)(C)O)c(C(=O)O)n1Cc1ccc(-c2ccccc2-c2nnn[nH]2)cc1` [olmesartan], the “efficacy ratio (%)” value in experiment [1] is recorded as 100.0%.
Turning to `CCCc1nc2c(C)cc(-c3nc4ccccc4n3C)cc2n1Cc1ccc(-c2ccccc2C(=O)O)cc1` [telmisartan], the “efficacy ratio (%)” value in experiment [1] is 88.0%. For the same molecule, in experiment [2] (setting [4]), the “diastolic BP” value stood at 83.08 mmHg and the “systolic BP” value worked out at 147.23 mmHg. For the same molecule, in experiment [2] (setting [5]), the “diastolic BP” value was determined as 80.49 ± 12.78 mmHg and the “systolic BP” value was determined as 138.89 ± 15.89 mmHg. Besides, in experiment [2] (setting [6]), the “diastolic BP” value was found to be 80.70 ± 11.71 mmHg and the “systolic BP” value stood at 143.64 ± 12.53 mmHg. Further, in experiment [2] (setting [7]), the “diastolic BP” value amounted to 86.15 mmHg and the “systolic BP” value stood at 155.00 mmHg. For the same molecule, in experiment [2] (setting [8]), the “diastolic BP” value is given as 93.52 ± 10.84 mmHg and the “systolic BP” value is reported as 163.00 ± 17.32 mmHg. Also, in experiment [2] (setting [9]), the “diastolic BP” value is given as 90.94 ± 12.27 mmHg and the “systolic BP” value was 161.33 ± 12.62 mmHg. In addition, in experiment [3], the “heart rate (beat/min.) last meas., ave.” value turned out to be 71.00 beat/min; the “heart rate (beat/min.) last meas.” value is 72.12 ± 9.42 beat/min; the “heart rate (beat/min.) 12th wk aft admin.” value stood at 73.09 ± 9.29 beat/min; the “heart rate (beat/min.) start. admin., ave.” value stood at 70.00 beat/min. In addition, in experiment [3], the “heart rate (beat/min.) start admin.” value stood at 74.24 ± 11.55 beat/min and the “heart rate (beat/min.) upon start. admin.” value is 74.95 ± 12.70 beat/min.
Turning to `CCCCC(=O)N(Cc1ccc(-c2ccccc2-c2nnn[nH]2)cc1)[C@H](C(=O)O)C(C)C` [valsartan], the “efficacy ratio (%)” value in experiment [1] came out at 86.0%. Further, in experiment [2] (setting [4]), the “diastolic BP” value is recorded as 80.74 mmHg and the “systolic BP” value is on record as 140.67 mmHg. Also, in experiment [2] (setting [5]), the “diastolic BP” value worked out at 80.62 ± 10.40 mmHg and the “systolic BP” value is given as 140.75 ± 15.61 mmHg. Also, in experiment [2] (setting [6]), the “diastolic BP” value worked out at 79.31 ± 10.42 mmHg and the “systolic BP” value turned out to be 138.32 ± 14.28 mmHg. Moreover, in experiment [2] (setting [7]), the “diastolic BP” value came out at 89.36 mmHg and the “systolic BP” value is recorded as 158.15 mmHg. Besides, in experiment [2] (setting [8]), the “diastolic BP” value turned out to be 91.43 ± 11.20 mmHg and the “systolic BP” value is listed as 160.65 ± 16.04 mmHg. For the same molecule, in experiment [2] (setting [9]), the “diastolic BP” value came out at 91.50 ± 10.58 mmHg and the “systolic BP” value came out at 160.65 ± 15.20 mmHg. In addition, in experiment [3], the “heart rate (beat/min.) last meas., ave.” value turned out to be 75.86 beat/min; the “heart rate (beat/min.) last meas.” value turned out to be 72.89 ± 10.20 beat/min; the “heart rate (beat/min.) 12th wk aft admin.” value amounted to 71.65 ± 9.38 beat/min; the “heart rate (beat/min.) start. admin., ave.” value was found to be 77.18 beat/min. Further, in experiment [3], the “heart rate (beat/min.) start admin.” value was found to be 74.08 ± 10.41 beat/min and the “heart rate (beat/min.) upon start. admin.” value is 73.22 ± 9.51 beat/min.
